Results reported in patent publication US20110009421A1, “COMPOUND HAVING 6-MEMBERED AROMATIC RING” (TAKEDA PHARMACEUTICAL COMPANY LIMITED, priority 2008, published 2011).
Structures can show the parent of a compound that is named as a salt.

The compounds below were run against T1, human GPR52 (Homo sapiens, UniProt Q9Y2T5) (assay: Increased intracellular cAMP levels in human GPR52 expression CHO cells (AlphaScreen cAMP assay)). Details: 1 μM test compound, 30 min at 37° C., human GPR52 expression CHO (dhfr−) cells; intracellular cAMP level, 100% = 1 μM 3-(6-(2-(3,4-dimethoxyphenyl)ethoxy)pyridin-2-yl)-N-(2-pyrrolidin-1-ylethyl)benzamide, 0% = DMSO.
T1 construct: expressed in transfected cells; host or cells: CHO (dhfr-) cells
Type: cell-based
Experimental: Increased Intracellular cAMP Levels in Human GPR52 Expression CHO Cells
1×10^4 human GPR52 expression CHO (dhfr−) cells were incubated with 1 μM test compound for 30 min at 37° C. in 30 μL assay buffer (HBSS (containing Ca^2+ and Mg^2+), 0.5% BSA, 100 μM IBMX, 100 μM Ro 20-1724, 5 mM HEPES (pH 7.55)) using an OptiPlate-384 (by PerkinElmer). The intracellular cAMP level was then assayed with an EnVision (by PerkinElmer) according to the protocol of the AlphaScreen cAMP Assay Kit (by PerkinElmer). The GPR52 agonist activity was calculated, assuming the intracellular cAMP level to be 100% in the presence of 1 μM of 3-(6-(2-(3,4-dimethoxyphenyl)ethoxy)pyridin-2-yl)-N-(2-pyrrolidin-1-ylethyl)benzamide obtained in Reference Example 39 and assuming the intracellular cAMP level to be 0% when DMSO was added instead of test compound.

T1 sequence (Q9Y2T5 whole entry): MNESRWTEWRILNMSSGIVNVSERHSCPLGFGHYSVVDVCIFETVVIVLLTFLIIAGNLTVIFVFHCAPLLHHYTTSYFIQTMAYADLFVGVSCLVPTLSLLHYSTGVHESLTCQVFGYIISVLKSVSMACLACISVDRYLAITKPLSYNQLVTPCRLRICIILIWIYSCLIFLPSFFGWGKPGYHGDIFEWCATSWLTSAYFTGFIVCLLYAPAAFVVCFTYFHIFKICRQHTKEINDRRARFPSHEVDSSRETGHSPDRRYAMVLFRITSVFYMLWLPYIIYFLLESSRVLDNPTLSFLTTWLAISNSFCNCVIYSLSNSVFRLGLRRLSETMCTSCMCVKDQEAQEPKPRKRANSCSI

Structure (SMILES)	GPR52 agonist activity (%)
COc1ccc(CCNc2nccc(-c3cccc(NC(=O)CCCN4CCCC4)c3)n2)cc1OC [Working Example 19]	85%
Cc1cccc(CCOc2cccc(-c3cccc(C(=O)NCCO)c3)n2)c1 [Working Example 59, N-(2-Hydroxyethyl)-3-(6-(2-(3-methylphenyl)ethoxy)pyridin-2-yl)benzamide]	84%
COc1ccc(CCOc2cccc(-c3cccc(C(=O)NCCCO)c3)n2)cc1OC [Working Example 170]	79%
COc1ccc(CCNc2nccc(-n3ccc4cc(C(=O)NCCN(C)C)ccc43)n2)cc1OC [Working Example 102, 1-(2-((2-(3,4-Dimethoxyphenyl)ethyl)amino)pyrimidin-4-yl)-N-(2-(dimethylamino)ethyl)-1H-indole-5-carboxamide]	89%
C[S+]([O-])CCNC(=O)c1cccc(-c2cccc(Oc3cc(Cl)cc(Cl)c3)n2)c1 (stereo not drawn) [Working Example 96, 3-(6-(3,5-dichlorophenoxy)pyridin-2-yl)-N-(2-(methylsulfinyl)ethyl)benzamide]	66%
COc1ccc(CCNc2nccc(-c3cccc(NC(=O)CCN(C)C)c3)n2)cc1OC [Working Example 29, N-(3-(2-((2-(3,4-dimethoxyphenyl)ethyl)amino)pyrimidin-4-yl)phenyl)-N^3,N^3-dimethyl-β-alaninamide]	85%
COc1ccc(CCNc2nccc(-c3cccc(NC(C)=O)c3)n2)cc1OC [Working Example 1, N-(3-(2-(2-(3,4-dimethoxyphenyl)ethylamino)pyrimidin-4-yl)phenyl)acetamide]	69%
COc1ccc(CCNc2nccc(-c3cccc(NC(=O)CCCN4CCCCC4)c3)n2)cc1OC [Working Example 31, N-(3-(2-(2-(3,4-Dimethoxy-phenyl)ethylamino)pyrimidin-4-yl)phenyl)-4-(piperidin-1-yl)butanamide]	98%
COc1ccc(CCOc2cccc(-c3cccc(C(=O)NCCC(N)=O)c3)n2)cc1OC [Working Example 175]	110%
O=C(NCCO)c1cccc(-c2cccc(Oc3cc(Cl)cc(Cl)c3)n2)c1 [Working Example 87, 3-(6-(3,5-dichlorophenoxy)pyridin-2-yl)-N-(2-hydroxyethyl)benzamide]	79%
O=C(NCCN1CCCC1)c1cccc(-c2ccnc(NCCc3cccc(F)c3)n2)c1 [Working Example 143]	72%
COc1cccc(CCOc2cccc(-c3cccc(C(=O)NC4CCOCC4)c3)n2)c1 [Working Example 67, 3-(6-(2-(3-Methoxyphenyl)ethoxy)pyridin-2-yl)-N-(tetrahydro-2H-pyran-4-yl)benzamide]	48%
COc1ccc(CCOc2cccc(-c3cccc(C(=O)NCCc4ccncc4)c3)n2)cc1OC [Working Example 201]	85%
COc1ccc(CCOc2cccc(-c3cccc(C(N)=O)c3)n2)cc1OC [Working Example 49]	55%
O=C(Nc1nccs1)c1cccc(-c2cccc(OCCc3cccc(F)c3)n2)c1 [Working Example 61, 3-(6-(2-(3-Fluorophenyl)ethoxy)pyridin-2-yl)-N-1,3-thiazol-2-ylbenzamide]	43%
COc1cccc(CCOc2cccc(-c3cccc(C(=O)Nc4ccccn4)c3)n2)c1 [Working Example 76, 3-(6-(2-(3-Methoxyphenyl)ethoxy)pyridin-2-yl)-N-pyridin-2-ylbenzamide]	52%
COc1ccccc1CCNc1nccc(-c2cccc(C(=O)NCCN3CCCC3)c2)n1 [Working Example 138]	104%
COc1cccc(C(=O)Nc2cccc(-c3ccnc(NCCc4ccc(OC)c(OC)c4)n3)c2)c1 [Working Example 12, N-(3-(2-(2-(3,4-dimethoxyphenyl)ethylamino)pyrimidin-4-yl)phenyl)-3-methoxybenzamide]	47%
COc1ccc(CCOc2cccc(-c3cccc(NC(=O)[C@@H]4CSC(=O)N4)c3)n2)cc1OC [Working Example 245]	58%
COc1ccc(CCOc2cccc(-c3cccc(NC(=O)CC4NCCc5ccccc54)c3)n2)cc1OC (stereo not drawn) [Working Example 318]	82%

Structure (SMILES)	GPR52 agonist activity (%)
O=C(NCCN1CCCC1)c1cccc(-c2cccc(Oc3ccc(Cl)c(Cl)c3)n2)c1 [Working Example 82, 3-(6-(3,4-Dichlorophenoxy)pyridin-2-yl)-N-(2-pyrrolidin-1-ylethyl)benzamide]	64%
O=C(NCCN1CCCC1)c1cccc(-c2ccnc(NCCc3ccc(F)c(Cl)c3)n2)c1 [Working Example 164]	107%
COc1cc(CCNc2nccc(-c3cccc(C(=O)NCCN4CCCC4)c3)n2)ccc1F [Working Example 166]	109%
O=C(NCCO)c1cccc(-c2cccc(Sc3ccc(Cl)cc3Cl)n2)c1 [Working Example 101, 3-(6-((2,4-dichlorophenyl)thio)pyridin-2-yl)-N-(2-hydroxyethyl)benzamide]	53%
N#CCCNC(=O)c1cc(-c2cccc(Oc3ccc(Cl)cc3Cl)n2)ccc1F [Working Example 113, N-(2-cyanoethyl)-5-(6-(2,4-dichlorophenoxy)pyridin-2-yl)-2-fluorobenzamide]	77%
COc1cccc(CCOc2cccc(-c3cccc(C(=O)Nc4ccc(F)nc4)c3)n2)c1 [Working Example 75, N-(6-Fluoropyridin-3-yl)-3-(6-(2-(3-methoxyphenyl)ethoxy)pyridin-2-yl)benzamide]	60%
COc1ccc(CCOc2cc(-c3cccc(C(=O)NCCN4CCCC4)c3)ccn2)cc1OC [Working Example 42, 3-(2-(2-(3,4-Dimethoxyphenyl)ethoxy)pyridin-4-yl)-N-(2-pyrrolidin-1-ylethyl)benzamide]	71%
COc1ccc(CCOc2cccc(-c3cccc(C(=O)Nc4ccccn4)c3)n2)cc1OC [Working Example 219]	94%
O=C(NCCCO)c1cccc(-c2cccc(Oc3cc(Cl)cc(Cl)c3)n2)c1 [Working Example 88, 3-(6-(3,5-Dichlorophenoxy)pyridin-2-yl)-N-(3-hydroxypropyl)benzamide]	62%
COc1ccc(CCOc2ccnc(-c3cccc(C(=O)NCCN4CCCC4)c3)n2)cc1OC [Working Example 45, 3-(4-(2-(3,4-Dimethoxyphenyl)ethoxy)pyrimidin-2-yl)-N-(2-pyrrolidin-1-ylethyl)benzamide]	85%
O=C(NCCO)c1cccc(-c2cccc(OCCc3cccc(C(F)(F)F)c3)n2)c1 [Working Example 65, N-(2-hydroxyethyl)-3-(6-(2-(3-(trifluoromethyl)phenyl)ethoxy)pyridin-2-yl)benzamide]	64%
COc1ccc(CCNc2nccc(-c3cccc(NC(=O)CC4CCCN4C)c3)n2)cc1OC (stereo not drawn) [Working Example 28, N-(3-(2-((2-(3,4-dimethoxyphenyl)ethyl)amino)pyrimidin-4-yl)phenyl)-2-(1-methylpyrrolidin-2-yl)acetamide hydrochloride]	74%
O=C(NCCN1CCCC1)c1cccc(-c2ccnc(NCCc3cccs3)n2)c1 [Working Example 152]	64%
COc1ccc(CCOc2cncc(-c3cccc(C(=O)NCCN4CCCC4)c3)c2)cc1OC [Working Example 44, 3-(5-(2-(3,4-Dimethoxyphenyl)ethoxy)pyridin-3-yl)-N-(2-pyrrolidin-1-ylethyl)benzamide]	68%
CC(C)(CO)NC(=O)c1cccc(-c2cccc(Oc3cc(Cl)cc(Cl)c3)n2)c1 [Working Example 91, 3-(6-(3,5-Dichlorophenoxy)pyridin-2-yl)-N-(2-hydroxy-1,1-dimethylethyl)benzamide]	61%
COc1ccc(CCNc2nccc(-c3cccc(NC(=O)C4CCNCC4)c3)n2)cc1OC [Working Example 22, N-(3-(2-((2-(3,4-dimethoxyphenyl)ethyl)amino)pyrimidin-4-yl)phenyl)piperidine-4-carboxamide hydrochloride]	80%
COc1ccc(CCOc2cccc(-c3cccc(NC(=O)NCCN(C)C)c3)n2)cc1OC [Working Example 53]	113%
COc1ccc(CCOc2cccc(-c3cccc(C(=O)NC4CCOCC4)c3)n2)cc1OC [Working Example 41, 3-(6-(2-(3,4-Dimethoxyphenyl)ethoxy)pyridin-2-yl)-N-(tetrahydro-2H-pyran-4-yl)benzamide]	56%
COc1ccc(CCOc2cccc(-c3cccc(C(=O)Nc4ccc5ncccc5c4)c3)n2)cc1OC [Working Example 227]	65%
